No end group written: not given here.
Columns and labels:
HD11 cells = assay: Neutralization of LPS-induced interleukin-1β transcription in HD11 cells (real time PCR); type: cell-based, chicken; details: 20 μM peptide pre-incubated with 50 ng/ml LPS; 4 h
Protocol: (§1) FIG. 11A-11B—Neutralization of lipopolysaccharide-induced interleukin-1β induction and nitric oxide production in HD11 cells by CMAP27 derived peptides. HD11 cells were seeded in 96 wells tissue culture treated plates (2×10^5 cell/mL) in RPMI-1640/10% FCS. Final concentrations of 50 ng/ml LPS were pre-incubated with or without 20 μM peptide for 30 min at 37° C. (5% CO2), applied to the cells and incubated for 4 h and 24 h. A) Transcription levels of interleukin-1 were determined by real time PCR (4 h only). B) Supernatants were collected for the determination of nitric oxide production (24 h incubations only) using the Griess assay. Significance levels: *P<0.05, **P<0.01, ***P<0.001. Data represents means±SEM from 3-4 independent experiments.
as §1, with “FIG. 12A-12B—Substitution” for “FIG. 11A-11B—Neutralization”, “of phenylalanine residues by tryptophan enhances the” for “of lipopolysaccharide-induced interleukin-1β induction and nitric oxide production”, “in vitro LPS neutralization capacity of” for “in HD11 cells by”, “h or” for “h and”
HD11 cells were seeded in 96 wells tissue culture treated plates (2×10^5 cell/mL) in RPMI-1640/10% FCS. Final concentrations of 50 ng/ml Salmonella minnesota LPS were pre-incubated with or without 20 μM peptide for 30 min at 37° C. (5% CO2), applied to the cells and incubated for 4 h and 24 h. A) Transcription levels of interleukin-1 were determined by real time PCR (4 h only). B) Supernatants were collected for the determination of nitric oxide production (24 h incubations only) using the Griess assay.

[1] = type: in vivo, chicken (Ross308 broilers); details: for bodyweight at 7 days post hatch (D7): 1 mg/kg in ovo at embryonic day 18, compared to vehicle treated birds; for HATCHABILITY: in vivo, 1 mg/kg
Protocol: FIG. 8A-8B—Bodyweights of Ross308 broilers assessed at hatch (D0) (FIG. 8A) and at 7 days after hatch (D7) (FIG. 8B). Birds were injected at embryonic day 18 with 1 mg/kg peptide or vehicle.
DCATH2 peptide and truncated analogs D-CMAP(1-21) and D-CMAP(4-21) were suspended in a Cholesterol/PBS formulation. Ross308 eggs were injected in the amnion fluid at 18 days of embryonic age with 100 μl of peptide containing suspension and returned to an egg incubator to hatch (˜ at 21 days embryonic age). Both control groups were injected in the amnion fluid with cholesterol/PBS formulation. The 1 mg/kg bodyweight dose of peptide was calculated based on an embryo body weight of 22 g. After hatch, all birds were weighed individually (D0) and transferred into isolator units per treatment (n=120/group). Birds were fed ad libitum and at 7 days after hatch (D7) bodyweights of individual birds were assessed.

[2] = system: avian pathogenic Escherichia coli 506; assay: In ovo peptide treatment, intratracheal E. coli challenge of broiler chicks; type: in vivo, chicken (Ross308 broilers)
Source text: FIG. 4A-4B—Differential and total counts of chicken peripheral blood leukocytes at 2 days p.i. after intra-tracheal injection with 10^6 CFU of avian pathogenic E. coli 506. A) total counts. B) differential counts.
FIG. 5A-5B—Mortality after intra-tracheal injection with 10^6 CFU of avian pathogenic E. coli 506. A) Survival curves of peptide treated and nontreated birds during 7 days post infection. B) Reduction of mortality (%) relative to untreated infected birds.
(§2) FIG. 6A-6B—Lesion scores determined at 7 days p.i. after intratracheal injection with 10^6 CFU of avian pathogenic E. coli 506. Left and right thoracic air sacs (respiratory tract), liver and heart (systemic infection) were separately evaluated using a scoring system: 0=no lesions, 1=mild lesions, 2=moderate lesions and 3=severe lesions. The mean lesion scores (MLS) were calculated as the sum of lesion scores per bird. A) The percentage of colibacillosis positive birds (MLS>1) and the reduction of colibacillosis positive birds relative to untreated infected birds. B) The average lesion scores relative to untreated infected birds.
FIG. 7—Thoracic air sac counts 7 days after intratracheal injection with 10^6 CFU of avian pathogenic E. coli 506.
DCATH2 peptide was suspended in a Cholesterol/PBS formulation. Ross308 eggs were injected in the amnion fluid at 18 days of embryonic age with 100 μl of DCATH2 containing suspension and returned to an egg incubator to hatch (˜ at 21 days embryonic age). Both control groups were injected in the amnion fluid with cholesterol/PBS formulation. The 1 mg/kg bodyweight dose of DCATH2 peptide was calculated based on an embryo body weight of 22 g. After hatch, birds were transferred into isolator units per treatment (n=54/group). Three days after hatch, all birds except the negative control were intratracheally inoculated with an avian pathogenic Escherichia coli 506 strain (UU strain) at a dose of 1×10^6 CFU per bird. Two day after challenge, 13 birds per group were sacrificed and used to take samples for blood and organ analysis. Blood samples were taken to determine total leukocyte counts and leukocyte differentiation. During the 7 day challenge period mortality was registered per day. At the end of the challenge period at 7 days post infection, all remaining birds were sacrificed and in the left and right side thoracic air sacs, liver and heart were examined for lesion scores.

[3] = system: avian pathogenic Salmonella enteritidis pt13a; assay: In ovo peptide treatment, subcutaneous Salmonella enteritidis challenge of broiler chicks; type: in vivo, chicken (Ross308 broilers)
Source text: FIG. 1A-1B—Differential and total counts of chicken peripheral blood leukocytes at 2 days p.i. after subcutaneous injection with 10^6 CFU of avian pathogenic Salmonella enteritis pt13a. A) total counts. B) differential counts.
FIG. 2A-2B—Mortality after subcutaneous injection with 10^6 CFU of avian pathogenic Salmonella enteritis pt13a. A) Survival curves of peptide treated and nontreated birds during 7 days post infection. B) Reduction of mortality (%) relative to untreated infected birds (+ control).
as §2, with “3A-3B—Lesion” for “6A-6B—Lesion”, “subcutaneous” for “intratracheal”, “Salmonella enteritis pt13a.” for “E. coli 506.”, “salmonellosis” for “colibacillosis”
DCATH2 peptide (the full D-amino acid analog of CMAP1-26) was suspended in a cholesterol/PBS formulation. Ross308 eggs were injected in the amnion fluid at 18 days of embryonic age with 100 μl of DCATH2 containing suspension and returned to an egg incubator to hatch (˜ at 21 days embryonic age). Both control groups were injected in the amnion fluid with cholesterol/PBS formulation. The 1 mg/kg bodyweight dose of peptide was calculated based on an embryo body weight of 22 g. After hatch, birds were transferred into 4 pens per treatment (n=40/group). Three days after hatch, all birds except the negative control were subcutaneously inoculated with an avian pathogenic Salmonella enteritidis pt13a strain at a dose of 5×10^6 CFU per bird. Two day after challenge, 12 birds per group were sacrificed and used to take samples for blood and organ analysis. Blood samples were taken to determine total leukocyte counts and leukocyte differentiation. During the 7 day challenge period mortality was registered per day. At the end of the challenge period at 7 days post infection, all remaining birds were sacrificed and in the left and right side thoracic air sacs, liver and heart were examined for lesion scores.

[4] = 2 days p.i., 1 mg/kg in ovo, compared to untreated non-infected birds
[5] = 2 days p.i., compared to non-treated, non-infected animals
[6] = 7 days p.i., 1 mg/kg in ovo, surviving birds

Substance: CMAP10-21-NH2: N-terminally truncated variant of CMAP1-21 (RRFRPKVTITIQ-NH2)
- LPS-neutralizing activity (block of LPS-induced IL-1β expression, in words) (HD11 cells): lack LPS-neutralizing activity

Substance: Phe/Trp substituted analog of CMAP7-21-NH2: CMAP7-21-NH2 with phenylalanine substituted by tryptophan (RKIRRWRPKVTITIQ-NH2)
- LPS-induced IL-1β expression blocked (HD11 cells): 86.3%

Substance: Phe/Trp substituted analog of CMAP10-21-NH2: CMAP10-21-NH2 with phenylalanine substituted by tryptophan (RRWRPKVTITIQ-NH2)
- LPS-induced IL-1β expression blocked (HD11 cells): 71.9%

Substance: RFGRFLREIRRFRPKVTITIQ-NH2 [D-C(1-21)]
- bodyweight at 7 days post hatch (D7) [1]: significant higher
- HATCHABILITY [1]: 95%

Substance: RFGRFLREIRRFRPKVTITIQGSARF-NH2 [DCATH2]
- bodyweight at 7 days post hatch (D7) [1]: significant higher
- HATCHABILITY [1]: 97%
- absolute number of peripheral blood heterophils [2, 4]: significantly higher
- absolute number of peripheral blood leukocytes [2, 4]: significantly higher
- absolute number of lymphocytes [2, 5]: No differences
- absolute number of monocytes [2, 5]: No differences
- reduction of mortality relative to untreated infected birds ([2]; 7 days p.i., 1 mg/kg in ovo): 30%
- reduction of severity of colibacillosis-related lesions ([2]; 7 days p.i., 1 mg/kg in ovo): 64%
- reduction of colibacillosis positive birds (MLS>1) relative to untreated infected birds [2, 6]: 52%
- reduction of air sac colonization by E. coli ([2]; 7 days p.i., 1 mg/kg in ovo, thoracic air sac counts): 93%
- delay of mortality ([3]; 1 mg/kg in ovo at embryonic day 18, Salmonella challenge 3 days after hatch): up to 3 days p.i.
- absolute number of peripheral blood heterophils ([3]; 2 days p.i., 1 mg/kg in ovo, compared to non-infected birds): significantly higher
- decrease of severity of lesions in salmonellosis positive birds ([3]; 7 days p.i., 1 mg/kg in ovo): 69%
- reduction of mortality relative to untreated infected birds ([3]; 7 days p.i., 1 mg/kg in ovo): 50%
- reduction of salmonellosis positive birds (mean lesion score>1) relative to untreated infected birds [3, 6]: 53%

Substance: RFGRFLRKIRRFRPKVTITIQGSARFG (CMAP27) [CATH2, in b91 probably DCATH2 is meant]
- reduction of severity of colibacillosis-related lesions ([2]; 7 days p.i., 1 mg/kg in ovo): 64%

Substance: RFLREIRRFRPKVTITIQ-NH2 [D-C(4-21)]
- bodyweight at 7 days post hatch (D7) [1]: significant higher
- HATCHABILITY [1]: 94%

— US11603391B2, “CATH2 derivatives” (Universiteit Utrecht Holding B.V., priority 2014, dated 2023)
